Measured values as given in paper PMC3454369, “Functional Redundancy of Class I Phosphoinositide 3-Kinase (PI3K) Isoforms in Signaling Growth Factor-Mediated Human Neutrophil Survival” (PLoS ONE, 2012).
Where two headings read alike, the source gives them in different places.

Key:
Human neutrophils [1] = assay: Morphologic analysis of human neutrophil apoptosis (light microscopy of cytospins); type: cell-based; conditions: rhGM-CSF 10 ng/ml, 20 h; for Cytoplasmic vacuolation of human neutrophils: light microscopy, PI-103 at 1 µM or above, LY294002 10 µM
Human neutrophils [2] = assay: rhGM-CSF-modulated human neutrophil apoptosis, annexin V/PI flow cytometry; type: cell-based; conditions: rhGM-CSF 10 ng/ml; for Effect on rhGM-CSF-mediated human neutrophil survival: 20 h
Method: To examine the effects of small molecule PI3K inhibitors on rhGM-CSF (10 ng/ml) -modulated apoptosis, neutrophils (5×10^6/ml) were re-suspended in Iscove’s modified Dulbecco medium (IMDM) supplemented with 10% autologous serum, 100 U/mL penicillin and 100 µg/mL streptomycin in non-tissue culture treated flat bottom Falcon Flexiwell plates in a humidified 5% CO2 atmosphere at 37°C.

[3] = Cell accessibility of the inhibitor (footnote of Table 3); design: key: *: Poor cell accessibility; conditions: footnote mark at the inhibitor's name
[4] = test system: Murine peripheral blood neutrophils; conditions: for Effect on constitutive murine neutrophil apoptosis: no rmGM-CSF, 8 h and 4 h
[5] = test system: PKB (Akt) phosphorylation; assay: Western blot for rhGM-CSF-induced PKB (Akt Ser473) phosphorylation in human neutrophils; type: cell-based; conditions: 20 min pre-incubation, rhGM-CSF 10 ng/ml 10 min
Method: Neutrophils were suspended at 5×10^6/ml and 0.5 ml aliquots were pre-incubated for 20 minutes with PI3K inhibitors at 37°C prior to treatment with GM-CSF 10 ng/ml for 10 min. The cells were washed with ice-cold phosphate-buffered saline and pelleted and resuspended in 50 µl of cold lysis buffer (20 mM Tris-HCl (pH 7.5), 150 mM NaCl, 1 mM EDTA, 1 mM EGTA, 1% Triton X-100, 2.5 mM sodium pyrophosphate, 1 mM β-glycerophosphate, 1 mM PMSF, 1 mM sodium fluoride, 2 mM sodium orthovanadate, 10 µg/ml leupeptin, 10 µg/ml aprotinin) and incubated on ice for 10 minutes. The Triton-insoluble fraction was pelleted by centrifugation at 10 000 g for 15 min at 4°C. The protein concentration of the supernatant was determined using a colorimetric assay (bicinchoninic acid; BCA, BIO Rad Laboratories). SDS sample buffer was added to each neutrophil lysate and heated to 99°C for 5 min. 30 µg of protein/well was loaded on to each 10% SDS-polyacrylamide gel and subjected to electrophoresis at 150 V and transferred to a PVDF Immobilon membrane using a semi-dry transfer system at 130 mA for 90 minutes. The membrane was blocked for 1 hour with 5% non-fat dry milk in Tris-HCl buffered saline containing 0.1% (w/v) Tween 20 then immunoblotted overnight at 4°C in TBS-Tween-20 with primary monoclonal antibody to total Akt rabbit mAb or Phospho-Akt (Ser^473) rabbit mAb (Cell Signaling Technology 40585 and 9272 respectively) at a dilution of 1∶1000 in TBS-Tween 20 with 5% Bovine Serum Albumin. The membrane was washed three times in TBS-Tween 20 and incubated with ECL HRP-conjugated donkey anti-rabbit IgG (Fab2 fragment; GE Healthcare) at a dilution of 1∶10 000 in TBS-Tween 20 for 1 hour at room temperature. Membranes were developed using ECL-Plus kit (GE Healthcare).
Figure 5 Combined inhibition of all Class IA PI3Ks abrogates rhGM-CSF mediated PKB phosphorylation. […] Western blots from the experiments describe in B. above were scanned and analyzed using the Aida Image Analyzer 3.27 software package. […]

[6] = test system: Peripheral blood neutrophils from exacerbating COPD patients; assay: Ex vivo apoptosis of peripheral blood neutrophils from patients with exacerbation of COPD, annexin V/PI flow cytometry; type: cell-based, human; conditions: 20 hours culture; for Effect on reduced spontaneous apoptosis of neutrophils from exacerbating COPD patients: ex vivo, 20 min pre-incubation
Human neutrophils [7] = assay: rhGM-CSF-modulated human neutrophil apoptosis, annexin V/PI flow cytometry; type: cell-based; conditions: no GM-CSF; 20 h (also 6 h); LY294002 10 µM
p110β = p110β (Homo sapiens, UniProt P42338); assay: biochemical
p110α [8] = target: T1, p110α (Homo sapiens, UniProt P42336); assay: biochemical
Human neutrophils [9] = assay: fMLP-stimulated neutrophil oxidative burst (luminol/HRP chemiluminescence); type: cell-based; conditions: fMLP 100 nM
Method: All PI3K inhibitors were dissolved in dimethyl sulfoxide (DMSO) and stored at −20°C. […] The concentration response curves for NVS-PI3-3 and NVS-PI3-4 on the neutrophil respiratory burst generated as described in [10] are shown in Figure 2.  Figure 2 Effect of NVS-PI3-4 and NVS-PI3-3 on Neutrophil Oxidative Burst. Human neutrophils were suspended at 4×10^6/ml in HBSS at 37°C and either primed with TNFα 10 ng/ml or treated with vehicle control, prior to the addition of NVS-PI3-4 (A) or NVS-PI3-3 (B) at the indicated concentrations. […] Triangular symbols represent TNFα-primed cells; unprimed cells depicted by squares.

p110γ [10] = target: T2, p110γ (Homo sapiens, UniProt P48736); assay: biochemical
p110δ [11] = target: T3, p110δ (Homo sapiens, UniProt O00329); assay: biochemical
PI3K Class I isoforms = test system: PI3K Class I isoforms; design: method as in PMID 20179189; conditions: competitive inhibition; cited from earlier work
p110γ [12] = target: T2, p110γ; conditions: in vitro kinase assay; data compiled from published work; cited from earlier work
p110α [13] = target: T1, p110α; conditions: in vitro kinase assay; data compiled from published work; cited from earlier work
p110δ [14] = target: T3, p110δ; conditions: in vitro kinase assay; data compiled from published work; cited from earlier work
[15] = inhibitor 3 µM, used individually
[16] = inhibitor 1 µM, used individually
[17] = C57BL/6, rmGM-CSF 0.1 ng/ml, 8 hours
[18] = C57BL/6, rmGM-CSF 0.1 ng/ml, 8 hours, concentration-dependent
[19] = TNFα 10 ng/ml-primed human neutrophils, read-out: Primed IC50, neutrophil oxidative burst
[20] = unprimed human neutrophils, read-out: Unprimed IC50, neutrophil oxidative burst

T3 sequence (O00329 whole entry, species assumed, canonical isoform): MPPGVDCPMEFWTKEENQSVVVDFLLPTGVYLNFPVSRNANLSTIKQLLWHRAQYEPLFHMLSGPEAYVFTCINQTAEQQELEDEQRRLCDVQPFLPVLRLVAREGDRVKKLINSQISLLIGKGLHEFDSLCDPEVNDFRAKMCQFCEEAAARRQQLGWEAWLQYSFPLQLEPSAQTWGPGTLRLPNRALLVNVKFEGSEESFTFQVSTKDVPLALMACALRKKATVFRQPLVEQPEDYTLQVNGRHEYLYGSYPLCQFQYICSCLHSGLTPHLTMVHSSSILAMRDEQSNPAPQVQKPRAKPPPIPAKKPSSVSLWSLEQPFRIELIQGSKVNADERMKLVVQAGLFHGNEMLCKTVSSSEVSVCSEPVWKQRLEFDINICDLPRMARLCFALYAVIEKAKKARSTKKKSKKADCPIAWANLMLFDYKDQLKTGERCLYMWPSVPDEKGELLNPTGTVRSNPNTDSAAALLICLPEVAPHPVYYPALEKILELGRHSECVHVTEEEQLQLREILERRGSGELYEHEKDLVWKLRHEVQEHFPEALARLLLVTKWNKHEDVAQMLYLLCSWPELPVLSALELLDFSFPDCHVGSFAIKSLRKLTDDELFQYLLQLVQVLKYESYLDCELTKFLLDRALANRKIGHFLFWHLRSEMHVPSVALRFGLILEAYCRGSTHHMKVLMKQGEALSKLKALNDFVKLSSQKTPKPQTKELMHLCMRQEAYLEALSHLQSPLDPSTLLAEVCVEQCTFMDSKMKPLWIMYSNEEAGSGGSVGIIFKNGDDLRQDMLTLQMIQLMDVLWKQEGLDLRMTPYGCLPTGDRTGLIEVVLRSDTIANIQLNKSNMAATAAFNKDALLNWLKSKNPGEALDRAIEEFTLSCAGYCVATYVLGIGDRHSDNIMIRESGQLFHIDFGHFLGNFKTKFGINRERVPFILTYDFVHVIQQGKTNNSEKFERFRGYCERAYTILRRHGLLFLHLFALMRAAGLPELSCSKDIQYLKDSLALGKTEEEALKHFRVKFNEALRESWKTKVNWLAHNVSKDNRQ
T3 sequence (P27986 whole entry partner, species assumed, canonical isoform): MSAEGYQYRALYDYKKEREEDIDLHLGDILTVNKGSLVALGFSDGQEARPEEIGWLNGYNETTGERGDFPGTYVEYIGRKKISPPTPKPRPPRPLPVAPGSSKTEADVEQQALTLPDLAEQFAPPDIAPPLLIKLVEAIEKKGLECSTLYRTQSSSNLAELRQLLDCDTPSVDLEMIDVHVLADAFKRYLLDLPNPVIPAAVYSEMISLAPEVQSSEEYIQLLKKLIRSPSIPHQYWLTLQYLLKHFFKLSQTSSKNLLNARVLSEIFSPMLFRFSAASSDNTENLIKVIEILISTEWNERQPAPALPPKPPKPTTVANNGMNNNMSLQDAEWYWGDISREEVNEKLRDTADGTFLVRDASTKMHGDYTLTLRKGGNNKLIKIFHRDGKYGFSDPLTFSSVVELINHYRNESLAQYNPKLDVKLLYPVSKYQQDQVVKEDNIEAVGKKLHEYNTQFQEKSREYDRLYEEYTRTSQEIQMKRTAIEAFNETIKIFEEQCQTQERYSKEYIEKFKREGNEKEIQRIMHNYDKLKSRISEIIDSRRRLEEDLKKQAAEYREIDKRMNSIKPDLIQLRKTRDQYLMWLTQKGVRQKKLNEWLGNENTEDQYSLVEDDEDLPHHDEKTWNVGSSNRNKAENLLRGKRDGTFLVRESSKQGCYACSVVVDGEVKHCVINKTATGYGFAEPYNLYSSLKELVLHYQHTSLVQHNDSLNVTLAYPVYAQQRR
T1 sequence (P42336 whole entry, species assumed): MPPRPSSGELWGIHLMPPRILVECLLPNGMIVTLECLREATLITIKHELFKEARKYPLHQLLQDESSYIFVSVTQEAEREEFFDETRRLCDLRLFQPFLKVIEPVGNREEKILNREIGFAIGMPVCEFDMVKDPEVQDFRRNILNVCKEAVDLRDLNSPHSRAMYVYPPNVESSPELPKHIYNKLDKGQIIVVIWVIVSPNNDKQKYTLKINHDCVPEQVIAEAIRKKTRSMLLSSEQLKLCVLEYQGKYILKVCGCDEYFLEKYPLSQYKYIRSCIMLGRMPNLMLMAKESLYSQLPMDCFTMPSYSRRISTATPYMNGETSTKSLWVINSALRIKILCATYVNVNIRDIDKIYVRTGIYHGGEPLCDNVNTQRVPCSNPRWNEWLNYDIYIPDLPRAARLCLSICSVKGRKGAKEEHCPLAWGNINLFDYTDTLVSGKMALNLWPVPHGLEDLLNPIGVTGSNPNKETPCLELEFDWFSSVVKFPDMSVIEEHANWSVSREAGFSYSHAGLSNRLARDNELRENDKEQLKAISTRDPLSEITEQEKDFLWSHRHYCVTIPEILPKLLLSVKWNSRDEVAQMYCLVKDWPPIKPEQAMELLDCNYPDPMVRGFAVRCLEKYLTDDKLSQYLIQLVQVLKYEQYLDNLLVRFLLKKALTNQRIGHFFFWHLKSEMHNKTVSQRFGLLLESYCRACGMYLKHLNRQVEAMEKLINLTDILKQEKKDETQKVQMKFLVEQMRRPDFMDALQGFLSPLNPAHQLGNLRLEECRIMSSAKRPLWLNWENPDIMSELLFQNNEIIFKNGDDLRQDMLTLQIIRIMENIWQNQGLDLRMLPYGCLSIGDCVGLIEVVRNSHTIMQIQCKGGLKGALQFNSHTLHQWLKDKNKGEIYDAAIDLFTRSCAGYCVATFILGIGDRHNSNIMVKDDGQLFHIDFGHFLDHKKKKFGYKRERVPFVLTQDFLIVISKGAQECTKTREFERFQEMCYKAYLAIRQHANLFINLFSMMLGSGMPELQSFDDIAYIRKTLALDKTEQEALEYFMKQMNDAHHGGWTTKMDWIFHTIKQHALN
T1 sequence (P27986 whole entry partner, species assumed): as the sequence (P27986 whole entry partner, species assumed, canonical isoform) above
Sequence of p110β (P42338 whole entry, species assumed): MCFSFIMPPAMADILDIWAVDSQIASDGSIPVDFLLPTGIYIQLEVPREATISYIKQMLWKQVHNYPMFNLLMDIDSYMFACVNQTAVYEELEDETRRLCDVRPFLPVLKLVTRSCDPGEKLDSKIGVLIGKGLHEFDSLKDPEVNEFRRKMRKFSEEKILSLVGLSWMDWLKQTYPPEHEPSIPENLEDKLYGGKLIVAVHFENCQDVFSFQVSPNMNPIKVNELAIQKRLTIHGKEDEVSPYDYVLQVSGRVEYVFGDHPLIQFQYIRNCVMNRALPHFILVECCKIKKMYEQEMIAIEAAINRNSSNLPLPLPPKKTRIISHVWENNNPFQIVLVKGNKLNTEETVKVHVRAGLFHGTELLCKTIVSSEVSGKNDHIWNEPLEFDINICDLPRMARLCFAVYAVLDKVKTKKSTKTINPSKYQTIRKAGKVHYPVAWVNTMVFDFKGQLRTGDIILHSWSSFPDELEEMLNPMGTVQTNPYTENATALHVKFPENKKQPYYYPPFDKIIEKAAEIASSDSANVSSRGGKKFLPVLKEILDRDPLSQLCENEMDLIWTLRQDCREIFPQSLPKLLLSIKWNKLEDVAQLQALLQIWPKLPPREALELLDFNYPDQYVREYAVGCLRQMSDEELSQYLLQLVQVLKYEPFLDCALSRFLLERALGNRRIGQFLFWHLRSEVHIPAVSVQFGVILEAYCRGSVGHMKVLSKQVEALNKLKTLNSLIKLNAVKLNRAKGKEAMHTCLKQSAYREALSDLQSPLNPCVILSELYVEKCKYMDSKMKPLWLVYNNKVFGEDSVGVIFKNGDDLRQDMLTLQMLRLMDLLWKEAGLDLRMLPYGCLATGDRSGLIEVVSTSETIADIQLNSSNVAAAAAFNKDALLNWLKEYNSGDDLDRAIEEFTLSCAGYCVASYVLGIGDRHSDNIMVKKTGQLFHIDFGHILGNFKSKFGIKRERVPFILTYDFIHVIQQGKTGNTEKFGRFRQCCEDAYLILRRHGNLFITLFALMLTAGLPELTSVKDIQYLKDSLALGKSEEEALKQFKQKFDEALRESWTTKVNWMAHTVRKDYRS
Sequence of p110β (P27986 whole entry partner, species assumed): as the sequence (P27986 whole entry partner, species assumed, canonical isoform) above
T2 sequence (P48736 whole entry, species assumed): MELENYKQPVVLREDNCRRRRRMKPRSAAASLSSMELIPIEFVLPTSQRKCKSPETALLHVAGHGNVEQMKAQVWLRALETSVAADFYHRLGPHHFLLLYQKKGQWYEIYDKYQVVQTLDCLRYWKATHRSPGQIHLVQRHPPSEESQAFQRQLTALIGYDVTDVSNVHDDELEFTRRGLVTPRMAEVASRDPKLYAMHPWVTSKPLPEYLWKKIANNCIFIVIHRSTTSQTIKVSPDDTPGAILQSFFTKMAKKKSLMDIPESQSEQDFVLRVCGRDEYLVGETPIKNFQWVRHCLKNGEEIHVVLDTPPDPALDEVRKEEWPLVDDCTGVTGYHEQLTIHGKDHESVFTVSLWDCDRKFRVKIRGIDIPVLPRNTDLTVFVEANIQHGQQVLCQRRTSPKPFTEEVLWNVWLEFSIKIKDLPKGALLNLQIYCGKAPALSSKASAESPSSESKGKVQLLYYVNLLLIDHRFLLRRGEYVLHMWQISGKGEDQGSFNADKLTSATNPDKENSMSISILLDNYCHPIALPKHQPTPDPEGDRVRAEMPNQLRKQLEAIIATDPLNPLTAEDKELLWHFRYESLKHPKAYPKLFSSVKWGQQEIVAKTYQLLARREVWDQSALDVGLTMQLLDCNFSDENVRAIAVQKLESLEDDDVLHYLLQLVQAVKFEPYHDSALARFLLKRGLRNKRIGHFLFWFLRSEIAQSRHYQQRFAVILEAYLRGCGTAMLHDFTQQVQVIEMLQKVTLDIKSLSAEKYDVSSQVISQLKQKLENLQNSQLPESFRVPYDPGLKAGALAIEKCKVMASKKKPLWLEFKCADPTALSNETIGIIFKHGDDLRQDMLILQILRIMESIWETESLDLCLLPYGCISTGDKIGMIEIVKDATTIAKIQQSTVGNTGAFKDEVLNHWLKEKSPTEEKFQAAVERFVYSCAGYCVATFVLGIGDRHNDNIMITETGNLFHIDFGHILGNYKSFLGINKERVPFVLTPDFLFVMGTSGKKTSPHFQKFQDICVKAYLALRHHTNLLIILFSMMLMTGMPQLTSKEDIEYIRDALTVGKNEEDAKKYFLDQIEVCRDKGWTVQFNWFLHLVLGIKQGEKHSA

## O=c1[nH]c2ccccc2n1C1CCN(Cc2ccc(-c3nc4cc5nc[nH]c5cc4nc3-c3ccccc3)cc2)CC1 [AKT-i1/2]
Human neutrophils [1]; increasing concentrations, morphology
  Effect on GM-CSF-mediated neutrophil survival: suppresses GM-CSF-mediated neutrophil survival

## O=C1NC(=O)/C(=C\c2ccc3nccnc3c2)S1 [AS605240]
Human neutrophils [2]; [15]
  Effect on rhGM-CSF-mediated human neutrophil survival: failed to abrogate GM-CSF mediated survival
[3]
  Cell accessibility: AS605240 (γ) ^*

## Cc1cc(C(C)Nc2ccccc2C(=O)O)c2nc(N3CCOCC3)cc(=O)n2c1 (stereo not drawn) [HBC-417]
Human neutrophils [2]; [16]
  Effect on rhGM-CSF-mediated human neutrophil survival: failed to affect GM-CSF-mediated survival

## Cc1ccccc1-n1c(Cn2cnc3c(N)ncnc32)nc2cccc(C)c2c1=O [IC87114]
Human neutrophils [2]; [15]
  Effect on rhGM-CSF-mediated human neutrophil survival: failed to abrogate GM-CSF mediated survival

## O=c1cc(N2CCOCC2)oc2c(-c3ccccc3)cccc12 [LY294002]
[4]
  Vacuole formation or necrosis in murine neutrophils: nor did it induce vacuole formation or necrosis
  Effect on constitutive murine neutrophil apoptosis: had no effect on the rate of constitutive murine neutrophil apoptosis
[4]; [17]
  Concentration giving maximal effect on rmGM-CSF survival effect: 10 µM
[4]; [18]
  Effect on rmGM-CSF cytoprotective (survival) effect in murine neutrophils: abrogated the rmGM-CSF cytoprotective effect
[5]
  Effect on GM-CSF-induced PKB phosphorylation: abolished
Human neutrophils [2]; inhibitor 10 µM
  Effect on rhGM-CSF-mediated human neutrophil survival: prevented rhGM-CSF-mediated human neutrophil survival
Human neutrophils [1]
  Cytoplasmic vacuolation of human neutrophils: not apparent
[6]
  Effect on reduced spontaneous apoptosis of neutrophils from exacerbating COPD patients: failed to restore the ability of exacerbating patient-derived neutrophils to undergo apoptosis in a timely fashion
Human neutrophils [7]
  Effect on constitutive human neutrophil apoptosis: without affecting the extent of constitutive neutrophil apoptosis

## NC(=O)[C@@H]1CCCN1C(=O)Nc1nc2ccc(-c3cnc(N)c(C(F)(F)F)c3)cc2s1 [NVS-PI3-2]
Human neutrophils [2]; [16]
  Effect on rhGM-CSF-mediated human neutrophil survival: failed to affect GM-CSF-mediated survival

## Cc1cc(NC(=O)CCNC(=O)Nc2nc(C)c(-c3ccc(-n4cccn4)cc3)s2)no1 [NVS-PI3-3]
p110β
  IC50: 600 nM
p110α [8]
  IC50: 180 nM
Human neutrophils [9]; [19]
  IC50: 525 nM
Human neutrophils [9]; [20]
  IC50: 44 nM
Human neutrophils [2]; [16]
  Effect on rhGM-CSF-mediated human neutrophil survival: failed to affect GM-CSF-mediated survival
p110γ [10]
  IC50: 310 nM
p110δ [11]
  IC50: 3 nM

## CC(=O)c1ccc(-c2sc(NC(=O)NCCC(=O)NC(C)(C)C)nc2C)cc1 [NVS-PI3-4]
p110β
  IC50: 250 nM
p110α [8]
  IC50: 1800 nM
Human neutrophils [9]; [19]
  IC50: 4000 nM
Human neutrophils [9]; [20]
  IC50: 710 nM
Human neutrophils [2]; [16]
  Effect on rhGM-CSF-mediated human neutrophil survival: failed to affect GM-CSF-mediated survival
p110δ [11]
  IC50: 750 nM

## Oc1cccc(-c2nc(N3CCOCC3)c3oc4ncccc4c3n2)c1 [PI-103]
[4]
  Vacuole formation or necrosis in murine neutrophils: did not exhibit significant vacuolation
  Effect on constitutive murine neutrophil apoptosis: did not affect constitutive apoptosis
[4]; [17]
  Concentration giving maximal effect on rmGM-CSF survival effect: 3 µM
[4]; [18]
  Effect on rmGM-CSF cytoprotective (survival) effect in murine neutrophils: blocked the rmGM-CSF survival effect
[4]; PI-103 0.3 µM, C57BL/6, rmGM-CSF 0.1 ng/ml, 8 hours
  Effect on rmGM-CSF-induced survival, wild type neutrophils: had no effect on rmGM-CSF-induced survival of wild type neutrophils
[4]; PI-103 0.3 µM, rmGM-CSF 0.1 ng/ml, 8 hours
  Effect on rmGM-CSF-induced survival, p110γKO and p110δKOγKO neutrophils: attenuated the rmGM-CSF survival effect
[5]
  Effect on GM-CSF-induced PKB phosphorylation: abolished
Human neutrophils [2]; inhibitor 10 µM
  Effect on rhGM-CSF-mediated human neutrophil survival: did indeed appear to inhibit the effects of rhGM-CSF on neutrophil apoptosis
PI3K Class I isoforms
  IC50 against all PI3K Class I isoforms: submicromolar range
Human neutrophils [1]; PI-103 10 µM
  Morphological assessment of apoptosis in neutrophils treated with rhGM-CSF and inhibitor: did not reveal classical apoptotic morphology
Human neutrophils [1]
  Cytoplasmic vacuolation of human neutrophils: extensive cytoplasmic vacuolation was seen
[3]
  Cell accessibility: PI-103 (pan class I) ^*

## CC#C[C@]1(O)CC[C@H]2[C@@H]3CCC4=CC(=O)CCC4=C3[C@@H](c3ccc(N(C)C)cc3)C[C@@]21C [RU-486]
[6]
  Effect on reduced spontaneous apoptosis of neutrophils from exacerbating COPD patients: lack of effect

## Cc1cc(C(C)Nc2ccccc2)c2nc(N3CCOCC3)cc(=O)n2c1 (stereo not drawn) [TGX-221]
p110γ [12]
  IC50: 3500 nM
p110α [13]
  IC50: 5000 nM
Human neutrophils [2]; inhibitor 10 µM
  Effect on rhGM-CSF-mediated human neutrophil survival: failed to abrogate GM-CSF mediated survival
p110δ [14]
  IC50: 100 nM

## COC[C@H]1OC(=O)c2coc3c2[C@@]1(C)C1=C(C3=O)[C@@H]2CCC(=O)[C@@]2(C)C[C@H]1OC(C)=O [Wortmannin]
[5]
  Effect on GM-CSF-induced PKB phosphorylation: abolished
Human neutrophils [2]; inhibitor 100 nM, replenished during culture
  Effect on rhGM-CSF-mediated human neutrophil survival: blocked the anti-apoptotic effect of GM-CSF, although less completely than 10 µM LY294002

## rhGM-CSF: Recombinant human granulocyte-macrophage colony stimulating factor, obtained from R&D Systems
Human neutrophils [2]; 6–24 h
  Effect of GM-CSF on human neutrophil apoptosis: delays human neutrophil apopotosis
[6]; 10 ng/ml
  Effect of rhGM-CSF on survival of neutrophils from exacerbating COPD patients: caused a fully PI3K-dependent additional survival effect

B1: rmGM-CSF: Recombinant mouse granulocyte-macrophage colony stimulating factor, purchased from Peprotech (protein, UniProt P01587 18-141, looked up)
Granulocyte-macrophage …: APTRSPITVTRPWKHVEAIKEALNLLDDMPVTLNEEVEVVSNEFSFKKLTCVQTRLKIFEQGLRGNFTKLKGALNMTASYYQTYCPPTPETDCETQVTTYADFIDSLKTFLTDIPFECKKPGQK
[4]; C57BL/6 peripheral blood neutrophils, 8 hour, AnV/PI flow cytometry
  EC50 for delay of murine neutrophil apoptosis: 0.0075 ng/mL
[4]; concentration-dependent, all time points studied (0–12 h)
  Effect on murine neutrophil apoptosis: significantly delayed
